Source: ChEMBL document CHEMBL4020786, “Discovery of pyrazolo[1,5-a]pyrimidine-3-carbonitrile derivatives as a new class of histone lysine demethylase 4D (KDM4D) inhibitors” (Bioorg Med Chem Lett, 2017)

Columns and labels:
[1] = target: T1, Lysine-specific demethylase 4D (Homo sapiens) (UniProt Q6B0I6); assay: Inhibition of KDM4D (unknown origin) at 10 uM using biotinylated H3 derived peptide as substrate preincubated for 15 mins followed by substrate addition measured after 1 hr by AlphaLISA method
T1 sequence (whole entry): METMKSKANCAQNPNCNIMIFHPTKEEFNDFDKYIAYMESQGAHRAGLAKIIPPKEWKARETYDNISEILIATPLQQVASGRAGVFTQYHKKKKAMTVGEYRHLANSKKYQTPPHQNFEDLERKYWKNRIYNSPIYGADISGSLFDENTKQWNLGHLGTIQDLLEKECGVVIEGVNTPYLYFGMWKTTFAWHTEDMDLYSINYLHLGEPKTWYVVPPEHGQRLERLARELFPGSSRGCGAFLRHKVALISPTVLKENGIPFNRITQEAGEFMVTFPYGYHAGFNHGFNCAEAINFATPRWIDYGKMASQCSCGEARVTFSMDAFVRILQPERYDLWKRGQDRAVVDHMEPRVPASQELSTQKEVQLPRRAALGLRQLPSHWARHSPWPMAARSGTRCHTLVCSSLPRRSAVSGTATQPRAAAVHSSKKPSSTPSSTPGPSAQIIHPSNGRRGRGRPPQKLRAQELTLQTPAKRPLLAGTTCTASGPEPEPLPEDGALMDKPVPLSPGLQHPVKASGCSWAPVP

[2] = target: T2, Lysine-specific demethylase 2B (Homo sapiens) (UniProt Q8NHM5); assay: Inhibition of KDM2B (unknown origin) at 10 uM
T2 sequence (whole entry): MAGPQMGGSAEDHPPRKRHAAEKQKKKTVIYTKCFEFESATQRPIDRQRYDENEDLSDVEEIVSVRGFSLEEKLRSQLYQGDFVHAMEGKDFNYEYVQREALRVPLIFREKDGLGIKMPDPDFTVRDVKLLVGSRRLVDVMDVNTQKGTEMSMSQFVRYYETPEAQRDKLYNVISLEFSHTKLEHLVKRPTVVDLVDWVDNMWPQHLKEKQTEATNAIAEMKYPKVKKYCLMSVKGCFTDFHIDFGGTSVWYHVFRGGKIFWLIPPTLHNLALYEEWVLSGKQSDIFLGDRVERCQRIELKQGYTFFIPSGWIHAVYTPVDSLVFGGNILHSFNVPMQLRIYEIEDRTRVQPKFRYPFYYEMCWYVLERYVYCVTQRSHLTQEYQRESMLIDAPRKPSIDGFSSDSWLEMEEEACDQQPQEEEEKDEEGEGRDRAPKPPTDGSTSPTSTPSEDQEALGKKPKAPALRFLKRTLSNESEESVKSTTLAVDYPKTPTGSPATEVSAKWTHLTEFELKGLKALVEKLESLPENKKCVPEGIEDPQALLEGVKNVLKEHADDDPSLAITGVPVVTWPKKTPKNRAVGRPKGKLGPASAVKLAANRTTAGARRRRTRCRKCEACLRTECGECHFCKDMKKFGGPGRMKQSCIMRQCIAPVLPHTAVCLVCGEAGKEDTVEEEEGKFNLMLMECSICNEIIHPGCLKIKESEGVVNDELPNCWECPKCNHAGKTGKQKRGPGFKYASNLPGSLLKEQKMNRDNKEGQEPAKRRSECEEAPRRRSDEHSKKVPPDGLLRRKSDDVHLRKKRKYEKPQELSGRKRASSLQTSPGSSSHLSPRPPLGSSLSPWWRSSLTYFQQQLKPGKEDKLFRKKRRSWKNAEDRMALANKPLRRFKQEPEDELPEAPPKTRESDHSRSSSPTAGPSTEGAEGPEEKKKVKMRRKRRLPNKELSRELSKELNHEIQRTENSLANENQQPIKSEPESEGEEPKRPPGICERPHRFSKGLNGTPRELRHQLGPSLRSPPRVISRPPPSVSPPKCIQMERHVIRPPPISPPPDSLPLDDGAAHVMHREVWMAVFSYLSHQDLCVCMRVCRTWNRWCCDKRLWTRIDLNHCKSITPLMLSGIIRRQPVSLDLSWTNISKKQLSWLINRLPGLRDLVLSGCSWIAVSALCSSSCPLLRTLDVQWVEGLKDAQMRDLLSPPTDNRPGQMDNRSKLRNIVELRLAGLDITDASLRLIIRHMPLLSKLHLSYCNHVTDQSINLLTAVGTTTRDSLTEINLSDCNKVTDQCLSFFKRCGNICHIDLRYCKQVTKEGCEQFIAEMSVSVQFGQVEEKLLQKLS

[3] = target: Lysine-specific demethylase 5A (Homo sapiens) (UniProt P29375); assay: Inhibition of KDM5A (unknown origin) at 10 uM
[4] = target: Lysine-specific demethylase 3B (Homo sapiens) (UniProt Q7LBC6); assay: Inhibition of KDM3B (unknown origin) at 10 uM
[5] = target: T3, Lysine-specific demethylase 4D (Homo sapiens, UniProt Q6B0I6); assay: Inhibition of KDM4D (unknown origin) using biotinylated H3 derived peptide as substrate preincubated for 15 mins followed by substrate addition measured after 1 hr by AlphaLISA method
T3 sequence (Q6B0I6 whole entry): T1 sequence (whole entry)

Chain of Lysine-specific demethylase 3B (Homo sapiens) (Q7LBC6 whole entry): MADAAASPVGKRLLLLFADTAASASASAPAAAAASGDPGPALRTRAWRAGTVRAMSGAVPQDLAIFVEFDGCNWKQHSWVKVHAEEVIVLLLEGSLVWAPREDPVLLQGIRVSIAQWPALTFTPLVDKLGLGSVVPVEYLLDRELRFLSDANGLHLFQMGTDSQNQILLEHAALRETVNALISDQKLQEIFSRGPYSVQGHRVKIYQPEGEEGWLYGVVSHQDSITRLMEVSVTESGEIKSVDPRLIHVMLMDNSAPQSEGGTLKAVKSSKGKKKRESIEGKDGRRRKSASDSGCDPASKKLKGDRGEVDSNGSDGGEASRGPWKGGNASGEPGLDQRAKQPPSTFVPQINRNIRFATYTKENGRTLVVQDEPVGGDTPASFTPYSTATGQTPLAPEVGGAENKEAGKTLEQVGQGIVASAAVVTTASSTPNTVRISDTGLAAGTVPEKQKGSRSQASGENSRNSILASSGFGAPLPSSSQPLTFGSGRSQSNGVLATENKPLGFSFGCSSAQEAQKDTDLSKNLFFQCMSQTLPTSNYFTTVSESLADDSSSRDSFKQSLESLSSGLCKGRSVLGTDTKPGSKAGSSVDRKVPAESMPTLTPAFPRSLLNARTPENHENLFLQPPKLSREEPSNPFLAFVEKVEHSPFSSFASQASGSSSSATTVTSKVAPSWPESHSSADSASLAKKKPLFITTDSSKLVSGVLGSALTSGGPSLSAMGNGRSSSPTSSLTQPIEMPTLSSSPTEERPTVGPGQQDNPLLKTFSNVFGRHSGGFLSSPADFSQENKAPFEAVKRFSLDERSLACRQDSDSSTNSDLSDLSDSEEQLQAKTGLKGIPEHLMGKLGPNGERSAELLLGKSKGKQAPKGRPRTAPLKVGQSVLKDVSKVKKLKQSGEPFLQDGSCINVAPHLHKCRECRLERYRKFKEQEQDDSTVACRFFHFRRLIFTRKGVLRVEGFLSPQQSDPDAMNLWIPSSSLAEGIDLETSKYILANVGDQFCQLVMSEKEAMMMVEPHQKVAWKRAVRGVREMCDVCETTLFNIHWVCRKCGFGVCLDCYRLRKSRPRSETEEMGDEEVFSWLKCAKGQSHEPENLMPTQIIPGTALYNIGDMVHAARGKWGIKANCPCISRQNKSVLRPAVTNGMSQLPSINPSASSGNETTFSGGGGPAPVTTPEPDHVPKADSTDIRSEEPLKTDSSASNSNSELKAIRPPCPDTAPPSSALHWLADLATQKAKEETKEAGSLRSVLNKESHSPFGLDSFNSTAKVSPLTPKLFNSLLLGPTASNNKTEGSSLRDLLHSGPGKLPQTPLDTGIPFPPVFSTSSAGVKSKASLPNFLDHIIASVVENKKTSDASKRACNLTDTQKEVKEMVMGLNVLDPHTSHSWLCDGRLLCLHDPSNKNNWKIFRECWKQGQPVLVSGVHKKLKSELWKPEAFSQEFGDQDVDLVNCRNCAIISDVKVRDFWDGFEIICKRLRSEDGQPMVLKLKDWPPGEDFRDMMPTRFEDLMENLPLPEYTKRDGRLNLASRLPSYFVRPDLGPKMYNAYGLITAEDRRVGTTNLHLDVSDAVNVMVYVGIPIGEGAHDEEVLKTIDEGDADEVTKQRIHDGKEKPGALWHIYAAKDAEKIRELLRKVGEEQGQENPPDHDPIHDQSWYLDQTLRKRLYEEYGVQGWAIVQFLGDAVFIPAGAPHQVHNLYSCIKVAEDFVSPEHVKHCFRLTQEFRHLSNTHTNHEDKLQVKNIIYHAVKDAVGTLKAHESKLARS
Chain of Lysine-specific demethylase 5A (Homo sapiens) (P29375 whole entry): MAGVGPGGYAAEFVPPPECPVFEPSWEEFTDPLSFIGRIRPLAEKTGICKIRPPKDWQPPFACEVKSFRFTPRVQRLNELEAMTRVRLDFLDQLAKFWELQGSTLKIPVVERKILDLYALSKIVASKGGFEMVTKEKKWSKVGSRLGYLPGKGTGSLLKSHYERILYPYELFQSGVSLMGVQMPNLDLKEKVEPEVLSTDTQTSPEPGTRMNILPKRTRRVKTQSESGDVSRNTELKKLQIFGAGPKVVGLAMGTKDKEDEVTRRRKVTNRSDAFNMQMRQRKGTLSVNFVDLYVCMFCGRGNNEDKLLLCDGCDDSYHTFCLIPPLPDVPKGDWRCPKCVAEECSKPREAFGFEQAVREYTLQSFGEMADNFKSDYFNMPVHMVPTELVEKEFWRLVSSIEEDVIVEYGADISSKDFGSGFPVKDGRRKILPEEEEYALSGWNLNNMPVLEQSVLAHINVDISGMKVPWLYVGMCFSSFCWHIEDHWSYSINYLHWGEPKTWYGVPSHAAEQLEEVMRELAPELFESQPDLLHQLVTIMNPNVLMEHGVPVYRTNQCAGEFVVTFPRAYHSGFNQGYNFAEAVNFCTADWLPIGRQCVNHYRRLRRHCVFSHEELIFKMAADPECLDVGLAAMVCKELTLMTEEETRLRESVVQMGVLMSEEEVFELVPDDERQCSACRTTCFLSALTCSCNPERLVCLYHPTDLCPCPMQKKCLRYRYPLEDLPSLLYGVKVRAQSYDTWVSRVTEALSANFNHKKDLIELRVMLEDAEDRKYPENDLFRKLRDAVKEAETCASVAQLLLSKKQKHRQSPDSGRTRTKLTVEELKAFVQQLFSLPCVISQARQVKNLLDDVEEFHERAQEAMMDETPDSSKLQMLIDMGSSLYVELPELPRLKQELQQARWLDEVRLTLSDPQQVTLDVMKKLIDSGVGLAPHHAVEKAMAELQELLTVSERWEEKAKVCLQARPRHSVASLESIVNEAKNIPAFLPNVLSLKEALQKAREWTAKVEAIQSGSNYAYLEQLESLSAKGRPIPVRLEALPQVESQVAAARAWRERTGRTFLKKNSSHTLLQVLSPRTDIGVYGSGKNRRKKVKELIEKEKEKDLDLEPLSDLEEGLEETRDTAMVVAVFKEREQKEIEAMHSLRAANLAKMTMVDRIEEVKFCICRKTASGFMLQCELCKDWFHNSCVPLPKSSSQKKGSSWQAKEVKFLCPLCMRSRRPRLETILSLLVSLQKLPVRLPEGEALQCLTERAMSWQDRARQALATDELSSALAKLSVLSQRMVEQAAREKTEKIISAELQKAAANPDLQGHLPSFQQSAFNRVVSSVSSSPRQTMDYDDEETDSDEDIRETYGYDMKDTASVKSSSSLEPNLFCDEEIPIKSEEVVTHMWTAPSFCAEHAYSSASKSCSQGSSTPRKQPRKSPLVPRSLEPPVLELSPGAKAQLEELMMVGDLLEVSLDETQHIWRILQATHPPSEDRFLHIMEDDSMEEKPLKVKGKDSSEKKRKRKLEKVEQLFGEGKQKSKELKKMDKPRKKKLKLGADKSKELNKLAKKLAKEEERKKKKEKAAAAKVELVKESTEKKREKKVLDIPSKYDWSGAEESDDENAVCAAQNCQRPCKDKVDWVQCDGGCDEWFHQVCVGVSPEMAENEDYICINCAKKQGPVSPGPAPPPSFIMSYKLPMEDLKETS

SMILES | inhibition [1] [%] | other results
Cc1ccc2c(O)nc3c(C#N)cnn3c2n1 | 21.9 | 
N#Cc1cnn2c1nc(O)c1ccc(N)cc12 | -2.25 | 
N#Cc1cnn2c1nc(O)c1ccc([N+](=O)[O-])cc12 | 4.75 | 
N#Cc1cnn2c1nc(O)c1cc([N+](=O)[O-])cnc12 | 1.91 | 
N#Cc1cnn2c1nc(O)c1cccc(N)c12 | 62.3 | 
Oc1ccccc1-c1ccn(-c2nccc(N3CCOCC3)n2)n1 | 99.7 | inhibition [2]: 84.1%; inhibition [3]: 73.6%; inhibition [4]: 90.7%
N#Cc1cnn2c1nc(O)c1ccc(C(F)(F)F)cc12 | -0.35 | 
N#Cc1cnn2c1nc(O)c1cccnc12 | 20.1 | 
N#Cc1cnn2c1nc(O)c1ccccc12 | 9.03 | 
Cc1nc2c(C#N)cnn2c2ncccc12 | 22.9 | 
N#Cc1cnn2c1nc(O)c1cccc([N+](=O)[O-])c12 | 73.3 | inhibition [2]: -4.85%; IC50 [5]: 3.14 µM; inhibition [3]: 23.1%; inhibition [4]: -2.18%
N#Cc1c(-c2ccccc2)nn2c1nc(O)c1cccnc12 | 23.6 | 
N#Cc1cnn2c1nc(O)c1ccncc12 | 68.1 | 
N#Cc1cnn2c1nc(O)c1ncccc12 | 5.26 | 
N#Cc1cnn2c1nc(O)c1cccc(C(F)(F)F)c12 | 8.63 | 
N#Cc1cnn2c1nc(O)c1ccc(Cl)nc12 | 58.7 | 
Cc1nn2c(nc(O)c3cccnc32)c1C#N | 88.8 | IC50 [5]: 0.41 µM
N#Cc1cnn2c1ncc1cccnc12 | 85.1 | IC50 [5]: 4.03 µM
N#Cc1cnn2c1nc(O)c1ccc(C(F)(F)F)nc12 | 10.4 | 
CS(=O)(=O)c1ccc2c(O)nc3c(C#N)cnn3c2c1 | 9.63 | 
CCc1nn2c(nc(O)c3cccnc32)c1C#N | 78.1 | IC50 [5]: 1.85 µM
N#Cc1cnn2c1nc(O)c1cnccc12 | 16.4 | 
